Measured values as given in ChEMBL document CHEMBL1201862, “PubChem BioAssay data set” (2004).
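Briefly, cells in 96-well plates were exposed to five compound concentrations for 48 h, and endpoints were estimated by linear interpolation. GI50 = concentration required for 50% inhibition of growth.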 Active and inactive are the calls of the source. Rule as the data show it: active = GI50 up to about 1.1 µM and inactive = higher.

Key:
Assay in all cases: inhibition of tumour cell growth, NCI panel, 48 h
NCI-H460 = system: NCI-H460
EKVX = system: EKVX
HOP-92 = system: HOP-92
SF-295 = system: SF-295
NCI-H23 = system: NCI-H23
IGROV-1 = system: IGROV-1
HOP-62 = system: HOP-62
OVCAR-8 = system: OVCAR-8
UO-31 = system: UO-31
XF498 = system: XF498
A549 = system: A549
MOLT-4 = system: MOLT-4
RPMI-8226 = system: RPMI-8226
LXFL 529 = system: LXFL 529
CCRF-CEM = system: CCRF-CEM
SK-MEL-28 = system: SK-MEL-28
SW-620 = system: SW-620
COLO 205 = system: COLO 205
ACHN = system: ACHN
RXF 631 = system: RXF 631
SNB-75 = system: SNB-75
UACC-62 = system: UACC-62
786-0 = system: 786-0
HT-29 = system: HT-29
SK-OV-3 = system: SK-OV-3
SK-MEL-2 = system: SK-MEL-2
DMS-114 = system: DMS-114
SN12C = system: SN12C
HL-60 = system: HL-60
UACC-257 = system: UACC-257
SF-268 = system: SF-268
NCI-H522 = system: NCI-H522
A498 = system: A498
OVCAR-3 = system: OVCAR-3
LOX IMVI = system: LOX IMVI
OVCAR-5 = system: OVCAR-5
M19-MEL = system: M19-MEL
OVCAR-4 = system: OVCAR-4
DLD-1 = system: DLD-1
U-251 = system: U-251
Malme-3M = system: Malme-3M
SR = system: SR
CAKI-1 = system: CAKI-1
HCT-15 = system: HCT-15
SK-MEL-5 = system: SK-MEL-5
TK-10 = system: TK-10
SNB-19 = system: SNB-19
SF-539 = system: SF-539
KM-20L2 = system: KM-20L2
KM12 = system: KM12
SNB-78 = system: SNB-78
NCI-H226 = system: NCI-H226
RXF 393 = system: RXF 393
K562 = system: K562
M14 = system: M14
HCT-116 = system: HCT-116
DMS-273 = system: DMS-273
HOP-18 = system: HOP-18

Compound: OCn1nc2c(C3OCCO3)cc3ccccc3n2c1=S
- GI50 (NCI-H460): > 100 µM (inactive)
- GI50 (EKVX): > 100 µM (inactive)
- GI50 (HOP-92): > 100 µM (inactive)
- GI50 (SF-295): > 100 µM (inactive)
- GI50 (NCI-H23): > 100 µM (inactive)
- GI50 (IGROV-1): > 100 µM (inactive)
- GI50 (HOP-62): > 100 µM (inactive)
- GI50 (OVCAR-8): > 100 µM (inactive)
- GI50 (UO-31): > 100 µM (inactive)
- GI50 (XF498): > 100 µM (inactive)
- GI50 (A549): > 100 µM (inactive)
- GI50 (MOLT-4): > 100 µM (inactive)
- GI50 (RPMI-8226): > 100 µM (inactive)
- GI50 (LXFL 529): > 100 µM (inactive)
- GI50 (CCRF-CEM): > 100 µM (inactive)
- GI50 (SK-MEL-28): > 100 µM (inactive)
- GI50 (SW-620): > 100 µM (inactive)
- GI50 (COLO 205): > 100 µM (inactive)
- GI50 (ACHN): > 100 µM (inactive)
- GI50 (RXF 631): > 100 µM (inactive)
- GI50 (SNB-75): > 100 µM (inactive)
- GI50 (UACC-62): > 100 µM (inactive)
- GI50 (786-0): > 100 µM (inactive)
- GI50 (HT-29): > 100 µM (inactive)
- GI50 (SK-OV-3): > 100 µM (inactive)
- GI50 (SK-MEL-2): > 100 µM (inactive)
- GI50 (DMS-114): > 100 µM (inactive)
- GI50 (SN12C): > 100 µM (inactive)
- GI50 (HL-60): > 100 µM (inactive)
- GI50 (UACC-257): > 100 µM (inactive)
- GI50 (SF-268): > 100 µM (inactive)
- GI50 (NCI-H522): > 100 µM (inactive)
- GI50 (A498): > 100 µM (inactive)
- GI50 (OVCAR-3): > 100 µM (inactive)
- GI50 (LOX IMVI): > 100 µM (inactive)
- GI50 (OVCAR-5): > 100 µM (inactive)
- GI50 (M19-MEL): > 100 µM (inactive)
- GI50 (OVCAR-4): > 100 µM (inactive)
- GI50 (DLD-1): > 100 µM (inactive)
- GI50 (U-251): > 100 µM (inactive)
- GI50 (Malme-3M): > 100 µM (inactive)
- GI50 (SR): > 100 µM (inactive)
- GI50 (CAKI-1): > 100 µM (inactive)
- GI50 (HCT-15): > 100 µM
- GI50 (SK-MEL-5): > 100 µM (inactive)
- GI50 (TK-10): > 100 µM (inactive)
- GI50 (SNB-19): > 100 µM (inactive)
- GI50 (SF-539): > 100 µM (inactive)
- GI50 (KM-20L2): > 100 µM (inactive)
- GI50 (KM12): > 100 µM (inactive)
- GI50 (SNB-78): > 100 µM (inactive)
- GI50 (NCI-H226): > 100 µM (inactive)
- GI50 (RXF 393): > 100 µM (inactive)
- GI50 (K562): > 100 µM (inactive)
- GI50 (M14): > 100 µM (inactive)
- GI50 (HCT-116): > 100 µM (inactive)
- GI50 (DMS-273): > 100 µM (inactive)
- GI50 (HOP-18): > 100 µM (inactive)
